According to ChEMBL document CHEMBL1123495, “Assessment of a potential dopaminergic prodrug moiety in several ring systems” (1986):
The source made the active and inactive calls. The calls are words filed in the database; no cut-off is given here.

Key:
Rattus norvegicus [1] = species: Rattus norvegicus; test: Compound was tested for induction of contralateral turning behavior with unilateral lesions of the nigrostriatal pathway in rat by haloperidol; Significant at p< 0.05; assay type: functional, organism-based
Rattus norvegicus [2] = species: Rattus norvegicus; test: Compound was tested for induction of contralateral turning behavior with unilateral lesions of the nigrostriatal pathway in rat, activity expressed as potency ratio to apomorphine.; assay type: functional
Dopamine receptor = conditions: Felis catus
Felis catus [3] = species: Felis catus; test: Compound was tested for inhibition of chronotropic stimulation response on the cardioaccelerator nerve in cat; assay type: functional; conditions: read-out: ID50 (the source's name)
Felis catus [4] = test: Compound was tested for inhibition of chronotropic stimulation response on the cardioaccelerator nerve in cat at the concentration > 3.0 uM/kg; Inactive; assay type: functional, organism-based
Rattus norvegicus [5] = test: Compound was tested for induction of contralateral turning behavior with unilateral lesions of the nigrostriatal pathway in rat, activity expressed as potency ratio to apomorphine; Inactive in inducing turns up to 12.1 umol/kg; assay type: functional, organism-based
Felis catus [6] = species: Felis catus; test: Compound was tested for antagonism of apomorphine induced inhibition of the tachycardia produced by stimulation of the right cardioaccelerator nerve in cat; assay type: functional
Rattus norvegicus [7] = species: Rattus norvegicus; test: Compound was tested for induction of contralateral turning behavior with unilateral lesions of the nigrostriatal pathway in rat by haloperidol; NS= Not significant; assay type: functional, organism-based
Rattus norvegicus [8] = test: Compound was tested for induction of contralateral turning behavior with unilateral lesions of the nigrostriatal pathway in rat, activity expressed as potency ratio to apomorphine; Inactive up to 11.7 umol/kg; assay type: functional, organism-based
Rattus norvegicus [9] = test: Compound was tested for induction of contralateral turning behavior with unilateral lesions of the nigrostriatal pathway in rat, activity expressed as potency ratio to apomorphine; Inactive up to 12.3 umol/kg; assay type: functional, organism-based
Rattus norvegicus [10] = test: Compound was tested for induction of contralateral turning behavior with unilateral lesions of the nigrostriatal pathway in rat, activity expressed as potency ratio to apomorphine; Inactive up to 13.9 umol/kg; assay type: functional, organism-based
Rattus norvegicus [11] = test: Compound was tested for induction of contralateral turning behavior with unilateral lesions of the nigrostriatal pathway in rat, activity expressed as potency ratio to apomorphine; Inactive up to 16.9 umol/kg; assay type: functional, organism-based
Rattus norvegicus [12] = test: Compound was tested for induction of contralateral turning behavior with unilateral lesions of the nigrostriatal pathway in rat, activity expressed as potency ratio to apomorphine; Inactive up to 13.3 umol/kg; assay type: functional, organism-based
Rattus norvegicus [13] = test: Compound was tested for induction of contralateral turning behavior with unilateral lesions of the nigrostriatal pathway in rat, activity expressed as potency ratio to apomorphine; Inactive up to 12.19 umol/kg; assay type: functional, organism-based

Structure (SMILES)	Potency ratio (Rattus norvegicus [2])	AD50 (Dopamine receptor)	ED50 (Felis catus [3]) [µmol/kg]	ID50 (Felis catus [4])	also measured
CCCN(CCC)C1Cc2ccc(CO)c(O)c2C1 (centres undefined)	0.33	inactive	0.12	–	Antagonism (Rattus norvegicus [1]): Active
CCCN1CCC[C@H]2c3ccc(CO)c(O)c3CC[C@@H]21	0.07	inactive	–	inactive	Antagonism (Rattus norvegicus [1]): Active
CCCN(CCC)C1CCc2c(ccc(C)c2O)C1 (centres undefined)	0.39	inactive	0.06	–	–
CCCN(CCC)C1CCc2c(ccc(C(=O)O)c2O)C1 (centres undefined)	–	inactive	–	inactive	Potency ratio (Rattus norvegicus [5]): inactive
CCCN(CCC)C1CCc2c(ccc(CO)c2O)C1 (centres undefined)	0.93	inactive	0.03	–	–
CCCN1CCC[C@H]2c3ccc(C)c(O)c3CC[C@@H]21	0.68	–	–	inactive	AD50 (Felis catus [6]): 0.44 µM/kg
CCCN1CCC[C@H]2c3ccc(C=O)c(O)c3CC[C@@H]21	0.38	inactive	1.81	–	Antagonism (Rattus norvegicus [7]): inactive
CCCN(CCC)C1CCc2c(ccc(C=O)c2O)C1 (centres undefined)	0.07	inactive	0.13	–	–
CCCN(CCC)C1Cc2ccc(C=O)c(O)c2C1 (centres undefined)	–	inactive	–	inactive	Potency ratio (Rattus norvegicus [8]): inactive
CCCN1CCC[C@H]2c3ccc(C(=O)O)c(O)c3CC[C@@H]21	–	inactive	–	inactive	Potency ratio (Rattus norvegicus [9]): inactive
CCCN(CCC)CCc1ccc(C(=O)O)c(O)c1	–	inactive	–	inactive	Potency ratio (Rattus norvegicus [10]): inactive
CCCN(CCC)C1Cc2ccc(C)c(O)c2C1 (centres undefined)	0.3	inactive	0.89	–	Antagonism (Rattus norvegicus [1]): Active
CCCN(CCC)C1Cc2ccc(C(=O)O)c(O)c2C1 (centres undefined)	–	inactive	3.18	–	–
CCCN(CCC)CCc1ccc(C)c(O)c1	–	inactive	–	inactive	Potency ratio (Rattus norvegicus [11]): inactive
CN1CCc2cccc3c2[C@H]1Cc1ccc(O)c(O)c1-3 [APOMORPHINE]	–	–	0.022	–	Antagonism (Rattus norvegicus [1]): Active
CCCN(CCC)CCc1ccc(C=O)c(O)c1	–	inactive	–	inactive	Antagonism (Rattus norvegicus [1]): Active; Potency ratio (Rattus norvegicus [12]): inactive
CCCN(CCC)CCc1ccc(CO)c(O)c1	–	inactive	–	inactive	Potency ratio (Rattus norvegicus [13]): inactive
